The values below come from ChEMBL document CHEMBL5370633, “Anti-cancer Effect of a Planar Catechin Analog through the Decrease in Mitochondrial Membrane Potential” (ACS Med Chem Lett, 2023).

SMILES strings stand for the structures. The source made the active and inactive calls. The calls are words filed in the database; no cut-off is given here.

The nature of data set [1]: Cytotoxicity against rat RGM1 cells assessed as reduction in viability at 100 to 100 uM after 24 hrs by CCK-8 assay. To be noted: rgm1, 24 h, dose 100-100 µM. The format is toxicity, cell-based.
In data set [2] the test system is RGK1. In words: Antiproliferative activity against rat RGK1 cells assessed as reduction in viability at 100 to 100 uM after 24 hrs by CCK-8 assay. The format is functional, cell-based. To be noted: dose 100-100 µM.
Data set [3] deals with RGK1. As to the kind of experiment: Induction of mitochondrial membrane potential loss in rat RGK1 cells at 200 uM after 24 hrs by MitoTracker Red CMXRos fluorescence microscopic analysis. Type of data set: functional, cell-based.

For `CC1(C)O[C@H]2Cc3c(O)cc(O)cc3O[C@@H]2c2cc(O)c(O)cc21`, the Activity entry in data set [1] is reported as “Toxic”. For the same molecule, the result with RGK1 [2] and with RGK1 [3] was Active.
